Test results published in patent publication US20110318798A1, “REMOVAL OF INHIBITORS OF MICROBIAL FE[…] INHIBITOR-CONTAINING COMPOSITIONS” (priority 2010, published 2011).

Experiments:
[1] = system: butanol-producing Clostridium strain; format: cell-based
[2] = system: Clostridium; details: in the fermentation medium

Compound: [Cl][Fe]([Cl])[Cl] [ferric chloride]
- transformation of un-fermentable hydrolysate into fermentable feedstock supporting microbial growth and butanol production ([1]; 2 g/L to 5 g/L metal salt, pH 9 to 10.5, 20° C. to 40° C.): successful
- butanol concentration after microbial fermentation for 72 hours ([1]; hydrolysate treated with 3 g/L […] or 2 g/l ferric chloride, pH 9.5, room temperature (about 20° C.), fermentation 10 ml, 30° C.): 7.69 g/L

Compound: O=CO [Formic acid]
- concentration at which it becomes inhibitory to growth of Clostridium and subsequent production of butanol [2]: 0.3 to 0.4 g/L
